Assay [1] addresses T1, HSP90α protein (Homo sapiens, UniProt P07900).
T1 construct: purchased BPS Bioscience #50298
Nature of the assay: HSP90α-binding FP (BODIPY) assay. To be noted: FP competition with BODIPY-labeled RNK04010. An outline of the steps:
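Fluorescence polarization measured competition with N-terminal human HSP90α, using either FITC-geldanamycin or BODIPY-labelled triazolone RNK04010 as tracer (5 nM final each). Compounds were tested in 2.5-fold dilutions from 20 μM to 5.2 nM, with incubation at 25 °C for 120 min (FITC) or 300 min (BODIPY).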

Assay [2] deals with U-87 MG human glioblastoma. Nature of the assay: U87 MG CCK-8 proliferation assay. The assay is classed as cell-based. As to conditions: Homo sapiens, U-87 MG, 72 h, U-87 MG cells, read-out: U87MG CCK-8. An outline of the steps: (§1)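 Lines were maintained according to ATCC guidance. Compounds were then applied as a 3-fold titration from 20 μM to 1.02 nM, and proliferation was measured by CCK-8 absorbance, normalised to DMSO controls minus a no-cell blank.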

Assay [3] concerns ERBB2. Briefly: ERBB2 (HER2) flow cytometry protein degradation assay in BT-474 cells. The format is cell-based, human. To be noted: DC50, BT-474 cells, 24 hr. The protocol:
To analyze total ERBB2 expression by flow cytometry, cells were detached with trypsin, washed, counted and treated with 10 μl/10^6 cells PE-conjugated, anti-ERBB2 monoclonal antibody (R&D Systems, #FAB1129P) for 30 min at 25° C. in dark. Cells were then washed, resuspended in 200 μl 1% paraformaldehyde and analyzed by flow cytometry.
% Inhibition=100−(D−B)/(S−B)*100%. • S: Fluorescence intensity of cells with antibody • D: Fluorescence intensity of compound-treated cells with antibody • B: Fluorescence intensity of cells without antibody

Assay [4] deals with MV-4-11 human acute myeloid leukemia. Nature of the assay: MV-4-11 CCK-8 proliferation assay. The assay is classed as cell-based. To be noted: Homo sapiens, MV4-11; MV-4-11 cells, 72 hr. The essentials: as §1
Assay [5] deals with MAPK7 (Homo sapiens, UniProt Q13164). Briefly: MAPK7 Western blot protein degradation assay in U-87 MG cells. The format is cell-based. Details: U-87 MG human glioblastoma cells, which express MAPK7; endogenous in cells; host or cells: U-87 MG. To be noted: 48 hr. The protocol:
U-87 MG human glioblastoma cells were seeded in 6- or 12-well tissue culture plates, and after 1 hr, test compounds were added at various concentrations and incubated at 37° C./5% CO2 for 48 hr. Cells were then washed with cold PBS, aspirated and cold RIPA buffer containing a protease/phosphatase inhibitor cocktail was added to lyse cells. After centrifugation, the total protein concentrations of cell lysates were determined using the BCA protein assay. Samples were normalized for equivalent protein concentrations, 5×SDS-PAGE loading buffer added and denatured at 100° C. for 10 min. 20 μl of each sample/well was loaded on a SDS-PAGE gel and electrophoresed for 20 min at 80 V, then 120 V for 1.5 hr. Gels were then electroblotted to nitrocellulose membranes using a wet-transfer method at 250 mA for 2.5 hr. Membranes were incubated with blocking buffer for 1 hr and washed 3 times with TBST for 5 min. Membranes were then incubated with anti-MAPK7 (anti-ERK5; Cell Signaling Technology, #12950) and anti-3-Actin (Cell Signaling Technology, #3700) monoclonal antibodies diluted in blocking buffer at 4° C. overnight per the manufacturer's recommendations. After washing 3 times, blots were incubated with appropriately labeled secondary antibodies for 1 hr at room temperature and washed again. Fluorescence imaging and quantitation was performed using a LI-COR Odyssey. Results was analyzed using GraphPad Prism 7 software.

Where only a bound is given, the exact number is not on record here.

MAPK7, sequence (Q13164 whole entry): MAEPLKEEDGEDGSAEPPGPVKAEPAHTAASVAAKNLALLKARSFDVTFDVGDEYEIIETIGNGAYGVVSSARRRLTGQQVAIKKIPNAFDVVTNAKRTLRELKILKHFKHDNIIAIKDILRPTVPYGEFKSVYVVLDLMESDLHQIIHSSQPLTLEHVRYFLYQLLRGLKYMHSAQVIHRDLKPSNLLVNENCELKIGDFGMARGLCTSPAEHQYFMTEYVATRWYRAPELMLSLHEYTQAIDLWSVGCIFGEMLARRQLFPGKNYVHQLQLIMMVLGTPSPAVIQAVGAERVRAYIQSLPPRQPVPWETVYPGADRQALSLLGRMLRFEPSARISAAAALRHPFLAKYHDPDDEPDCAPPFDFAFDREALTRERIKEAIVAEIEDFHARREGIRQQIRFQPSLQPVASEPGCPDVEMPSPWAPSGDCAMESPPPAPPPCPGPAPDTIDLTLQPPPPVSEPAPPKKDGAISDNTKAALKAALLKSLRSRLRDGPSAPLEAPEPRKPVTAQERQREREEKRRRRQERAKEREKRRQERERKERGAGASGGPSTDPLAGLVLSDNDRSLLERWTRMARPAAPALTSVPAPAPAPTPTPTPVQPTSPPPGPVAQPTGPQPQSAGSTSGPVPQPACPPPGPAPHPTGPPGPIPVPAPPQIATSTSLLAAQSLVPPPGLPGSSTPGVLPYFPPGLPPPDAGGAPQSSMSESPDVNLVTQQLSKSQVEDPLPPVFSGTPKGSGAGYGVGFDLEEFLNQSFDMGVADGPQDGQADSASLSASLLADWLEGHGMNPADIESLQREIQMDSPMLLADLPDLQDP

Compound `CCOc1cc(N2CCC(C(=O)N3CCC(Cc4ccc(CN(C)Cc5ccc(-n6c(C(=O)NCC(F)(F)F)nnc6-c6cc(C(C)C)c(O)cc6O)cc5)cn4)CC3)CC2)ccc1Nc1ncc2c(n1)N(C)c1ccccc1C(=O)N2C` [Compound 057, 5-(2,4-dihydroxy-5-isopropylphenyl)-4-(4-((((6-((1-(1-(4-((5,11-dimethyl-6-oxo-6,11-dihydro-5H-benzo[e]pyrimido[5,4-b][1,4]diazepin-2-yl)amino)-3-ethoxyphenyl)piperidine-4-carbonyl)piperidin-4-yl)methyl)pyridin-3-yl)methyl)(methyl)amino)methyl)phenyl)-N-(2,2,2-trifluoroethyl)-4H-1,2,4-triazole-3-carboxamide] gave an IC50 in assay [1] of 100 to 1000 nM. The EC50 in assay [2] was 100 to 1000 nM; in assay [4] it was below 100 nM. The ERBB2 degradation entry in assay [3] is listed as “B (DC50 = 100-1000 nM)”.

On to `CCOc1cc(N2CCC(C(=O)N3CCN(Cc4ccc(-n5c(O)nnc5-c5cc(C(C)C)c(O)cc5O)cc4)CC3)CC2)ccc1Nc1ncc2c(n1)N(C)c1ccccc1C(=O)N2C.Cl` [Compound 043, 2-((4-(4-(4-(4-(3-(2,4-dihydroxy-5-isopropylphenyl)-5-hydroxy-4H-1,2,4-triazol-4-yl)benzyl)piperazine-1-carbonyl)piperidin-1-yl)-2-ethoxyphenyl)amino)-5,11-dimethyl-5,11-dihydro-6H-benzo[e]pyrimido[5,4-b][1,4]diazepin-6-one], for which, in assay [5], the “MAPK7 degradation (30 nM)” value is “C (< 33% degradation)”, the “MAPK7 degradation (100 nM)” value is given as “B (33-66% degradation)”, the “MAPK7 degradation (300 nM)” value is on record as “A (>66% degradation)” and the “MAPK7 degradation (1000 nM)” value is given as “A (>66% degradation)”. The ERBB2 degradation entry in assay [3] is on record as “B (DC50 = 100-1000 nM)”.

In assay [1], `CCOc1cc(N2CCC(C(=O)N3CCC(CN4CCN(CCCOc5ccc(Nc6ccc(-n7nc(C(F)(F)F)c8c7CC(C)(C)CC8=O)cc6C(N)=O)cc5)CC4)CC3)CC2)ccc1Nc1ncc2c(n1)N(C)c1ccccc1C(=O)N2C` [Compound 066] came in with an IC50 above 1000 nM. The EC50 in assay [2] and in assay [4] was above 1000 nM throughout. The ERBB2 degradation entry in assay [3] is “C (DC50 > 1000 nM)”.

For the compound `CCOc1cc(N2CCC(C(=O)N3CCC(CN4CCN(Cc5ccc(-n6c(C(=O)NC(C)C)nnc6-c6cc(CC)c(O)cc6O)cc5)CC4)CC3)CC2)ccc1Nc1ncc2c(n1)N(S(C)(=O)=O)c1ccccc1C(=O)N2C` [Compound 098, 4-(4-((4-((1-(1-(3-ethoxy-4-((5-methyl-11-(methylsulfonyl)-6-oxo-6,11-dihydro-5H-benzo[e]pyrimido[5,4-b][1,4]diazepin-2-yl)amino)phenyl)piperidine-4-carbonyl)piperidin-4-yl)methyl)piperazin-1-yl)methyl)phenyl)-5-(5-ethyl-2,4-dihydroxyphenyl)-N-isopropyl-4H-1,2,4-triazole-3-carboxamide], the IC50 in assay [1] was below 100 nM. Also, the EC50 in assay [2] and in assay [4] was below 100 nM in each case. For the same compound, the ERBB2 degradation entry in assay [3] is “B (DC50 = 100-1000 nM)”.

As to `CCOc1cc(N2CCC(C(=O)NCc3ccc(-n4c(O)nnc4-c4cc(CC)c(O)cc4O)cc3C(F)(F)F)CC2)ccc1Nc1ncc2c(n1)N(C)c1ccccc1C(=O)N2C` [Compound 031, 1-(4-((5,11-dimethyl-6-oxo-6,11-dihydro-5H-benzo[e]pyrimido[5,4-b][1,4]diazepin-2-yl)amino)-3-ethoxyphenyl)-N-(4-(3-(5-ethyl-2,4-dihydroxyphenyl)-5-hydroxy-4H-1,2,4-triazol-4-yl)-2-(trifluoromethyl)benzyl)piperidine-4-carboxamide], in assay [1], the IC50 is above 1000 nM. Besides, the EC50 in assay [2] and in assay [4] was above 1000 nM in each case. The ERBB2 degradation result in assay [3] is on record as “C (DC50 > 1000 nM)”.

As for `CCOc1cc(N2CCC(C(=O)N3CCC(CN4CCN(Cc5ccc(-n6c(C(=O)NC7CC7)nnc6-c6cc(CC)c(O)cc6O)cc5)CC4)CC3)CC2)ccc1Nc1ncc2c(n1)N(S(C)(=O)=O)c1ccccc1C(=O)N2C` [Compound 075, N-cyclopropyl-4-(4-((4-((1-(1-(3-ethoxy-4-((5-methyl-11-(methylsulfonyl)-6-oxo-6,11-dihydro-5H-benzo[e]pyrimido[5,4-b][1,4]diazepin-2-yl)amino)phenyl)piperidine-4-carbonyl)piperidin-4-yl)methyl)piperazin-1-yl)methyl)phenyl)-5-(5-ethyl-2,4-dihydroxyphenyl)-4H-1,2,4-triazole-3-carboxamide], in assay [1], the IC50 was below 100 nM. The EC50 in assay [2] and in assay [4] was below 100 nM in each case. For the same compound, in assay [3], the ERBB2 degradation result is given as “B (DC50 = 100-1000 nM)”.

The compound `CCOc1cc(N2CCC(C(=O)NCCc3ccc(CN4CCC(Cc5ccc(-n6c(C(=O)NCC(F)(F)F)nnc6-c6cc(C(C)C)c(O)cc6O)cc5)CC4)cc3)CC2)ccc1Nc1ncc2c(n1)N(C)c1ccccc1C(=O)N2C` [Compound 035, N-(4-((4-(4-(3-(2,4-dihydroxy-5-isopropylphenyl)-5-((2,2,2-trifluoroethyl)carbamoyl)-4H-1,2,4-triazol-4-yl)benzyl)piperidin-1-yl)methyl)phenethyl)-1-(4-((5,11-dimethyl-6-oxo-6,11-dihydro-5H-benzo[e]pyrimido[5,4-b][1,4]diazepin-2-yl)amino)-3-ethoxyphenyl)piperidine-4-carboxamide] returned an IC50 in assay [1] of 100 to 1000 nM. Also, the EC50 in assay [2] is 100 to 1000 nM; in assay [4], below 100 nM. Further, the ERBB2 degradation result in assay [3] is “B (DC50 = 100-1000 nM)”.

In assay [1], `CCOc1cc(N2CCC(C(=O)N3CCC(CN4CCN(Cc5ccc(-n6c(O)nnc6-c6ccc(O)cc6O)cc5)CC4)CC3)CC2)ccc1Nc1ncc2c(n1)N(C)c1ccccc1C(=O)N2C` [Compound 021, 2-((4-(4-(4-((4-(4-(3-(2,4-dihydroxyphenyl)-5-hydroxy-4H-1,2,4-triazol-4-yl)benzyl)piperazin-1-yl)methyl)piperidine-1-carbonyl)piperidin-1-yl)-2-ethoxyphenyl)amino)-5,11-dimethyl-5,11-dihydro-6H-benzo[e]pyrimido[5,4-b][1,4]diazepin-6-one] came in with an IC50 of 100 to 1000 nM. Besides, the EC50 in assay [2] is above 1000 nM. In addition, in assay [5], the “MAPK7 degradation (30 nM)” value is “C (< 33% degradation)”, the “MAPK7 degradation (100 nM)” value was “C (< 33% degradation)”, the “MAPK7 degradation (300 nM)” value was “C (< 33% degradation)” and the “MAPK7 degradation (1000 nM)” value is on record as “C (< 33% degradation)”. In assay [4], this compound yielded an EC50 of 100 to 1000 nM.

On to `CCOc1cc(N2CCC(C(=O)NCCOCCOc3ccc(Nc4ccc(-n5nc(C(F)(F)F)c6c5CC(C)(C)CC6=O)cc4C(N)=O)cc3)CC2)ccc1Nc1ncc2c(n1)N(C)c1ccccc1C(=O)N2C` [Compound 065, N-(2-(2-(4-((2-carbamoyl-4-(6,6-dimethyl-4-oxo-3-(trifluoromethyl)-4,5,6,7-tetrahydro-1H-indazol-1-yl)phenyl)amino)phenoxy)ethoxy)ethyl)-1-(4-((5,11-dimethyl-6-oxo-6,11-dihydro-5H-benzo[e]pyrimido[5,4-b][1,4]diazepin-2-yl)amino)-3-ethoxyphenyl)piperidine-4-carboxamide], for which the IC50 in assay [1] was above 1000 nM. In addition, the EC50 in assay [2] and in assay [4] was above 1000 nM in each case. In addition, the ERBB2 degradation result in assay [3] was “C (DC50 > 1000 nM)”.

Compound `CCOc1cc(N2CCC(C(=O)NCc3ccc(-n4c(O)nnc4-c4cc(CC)c(O)cc4O)cc3)CC2)ccc1Nc1ncc2c(n1)N(C)c1ccccc1C(=O)N2C` [Compound 028, 1-(4-((5,11-dimethyl-6-oxo-6,11-dihydro-5H-benzo[e]pyrimido[5,4-b][1,4]diazepin-2-yl)amino)-3-ethoxyphenyl)-N-(4-(3-(5-ethyl-2,4-dihydroxyphenyl)-5-hydroxy-4H-1,2,4-triazol-4-yl)benzyl)piperidine-4-carboxamide] came in with a half-inhibitory concentration (IC50) in assay [1] of 100 to 1000 nM. In addition, the EC50 is above 1000 nM in assay [2] and 100 to 1000 nM in assay [4]. In addition, the ERBB2 degradation entry in assay [3] is listed as “B (DC50 = 100-1000 nM)”.

The values above are taken from patent US20240124460A1, “METHODS AND COMPOSITIONS FOR TARGETED PROTEIN DEGRADATION” (Ranok Therapeutics (Hangzhou) Co. Ltd., priority 2020, published 2024).
